This is an account of results in patent US9012443B2 (Amgen Inc., priority 2011, dated 2015).

Assay [1] addresses T1, Nav 1.7 (Homo sapiens (Human), UniProt Q15858). The experiment in a line: Nav 1.7 IWQ in vitro assay (IonWorks Quattro population patch-clamp). The settings on record: 293 cells stably transfected with Nav 1.7; second part of table; read-out: Nav1.7 IWQ IC50 IP. It counts as cell-based. In short, it runs like this: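 Percent block, measured in duplicate, came from peak minus end-of-pulse current on the 26th −20 mV step, and IC50 was fitted against concentration. Stably transfected 293 cells were recorded in population patch-clamp mode before and after a single test concentration, which was added over 3–8 min while cells were unclamped.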
A general note: In patch-clamp work, channel activity is measured electrically.

The target of assay [2] is T1, Nav 1.7. The experiment in a line: Nav 1.7 in vitro PX assay (PatchXpress whole cell voltage clamp). It counts as cell-based. The settings on record: 293 cells, human Nav1.7, partially inactivated state; read-out: Nav1.7 PX IC50 IP. In short, it runs like this:
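Partially inactivated channel state (holding potential for 20–50% inactivation) probed in human Nav1.7-transfected 293 cells by automated patch clamp, test pulse −10 mV for 20 msec.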

T1 sequence (Q15858 whole entry): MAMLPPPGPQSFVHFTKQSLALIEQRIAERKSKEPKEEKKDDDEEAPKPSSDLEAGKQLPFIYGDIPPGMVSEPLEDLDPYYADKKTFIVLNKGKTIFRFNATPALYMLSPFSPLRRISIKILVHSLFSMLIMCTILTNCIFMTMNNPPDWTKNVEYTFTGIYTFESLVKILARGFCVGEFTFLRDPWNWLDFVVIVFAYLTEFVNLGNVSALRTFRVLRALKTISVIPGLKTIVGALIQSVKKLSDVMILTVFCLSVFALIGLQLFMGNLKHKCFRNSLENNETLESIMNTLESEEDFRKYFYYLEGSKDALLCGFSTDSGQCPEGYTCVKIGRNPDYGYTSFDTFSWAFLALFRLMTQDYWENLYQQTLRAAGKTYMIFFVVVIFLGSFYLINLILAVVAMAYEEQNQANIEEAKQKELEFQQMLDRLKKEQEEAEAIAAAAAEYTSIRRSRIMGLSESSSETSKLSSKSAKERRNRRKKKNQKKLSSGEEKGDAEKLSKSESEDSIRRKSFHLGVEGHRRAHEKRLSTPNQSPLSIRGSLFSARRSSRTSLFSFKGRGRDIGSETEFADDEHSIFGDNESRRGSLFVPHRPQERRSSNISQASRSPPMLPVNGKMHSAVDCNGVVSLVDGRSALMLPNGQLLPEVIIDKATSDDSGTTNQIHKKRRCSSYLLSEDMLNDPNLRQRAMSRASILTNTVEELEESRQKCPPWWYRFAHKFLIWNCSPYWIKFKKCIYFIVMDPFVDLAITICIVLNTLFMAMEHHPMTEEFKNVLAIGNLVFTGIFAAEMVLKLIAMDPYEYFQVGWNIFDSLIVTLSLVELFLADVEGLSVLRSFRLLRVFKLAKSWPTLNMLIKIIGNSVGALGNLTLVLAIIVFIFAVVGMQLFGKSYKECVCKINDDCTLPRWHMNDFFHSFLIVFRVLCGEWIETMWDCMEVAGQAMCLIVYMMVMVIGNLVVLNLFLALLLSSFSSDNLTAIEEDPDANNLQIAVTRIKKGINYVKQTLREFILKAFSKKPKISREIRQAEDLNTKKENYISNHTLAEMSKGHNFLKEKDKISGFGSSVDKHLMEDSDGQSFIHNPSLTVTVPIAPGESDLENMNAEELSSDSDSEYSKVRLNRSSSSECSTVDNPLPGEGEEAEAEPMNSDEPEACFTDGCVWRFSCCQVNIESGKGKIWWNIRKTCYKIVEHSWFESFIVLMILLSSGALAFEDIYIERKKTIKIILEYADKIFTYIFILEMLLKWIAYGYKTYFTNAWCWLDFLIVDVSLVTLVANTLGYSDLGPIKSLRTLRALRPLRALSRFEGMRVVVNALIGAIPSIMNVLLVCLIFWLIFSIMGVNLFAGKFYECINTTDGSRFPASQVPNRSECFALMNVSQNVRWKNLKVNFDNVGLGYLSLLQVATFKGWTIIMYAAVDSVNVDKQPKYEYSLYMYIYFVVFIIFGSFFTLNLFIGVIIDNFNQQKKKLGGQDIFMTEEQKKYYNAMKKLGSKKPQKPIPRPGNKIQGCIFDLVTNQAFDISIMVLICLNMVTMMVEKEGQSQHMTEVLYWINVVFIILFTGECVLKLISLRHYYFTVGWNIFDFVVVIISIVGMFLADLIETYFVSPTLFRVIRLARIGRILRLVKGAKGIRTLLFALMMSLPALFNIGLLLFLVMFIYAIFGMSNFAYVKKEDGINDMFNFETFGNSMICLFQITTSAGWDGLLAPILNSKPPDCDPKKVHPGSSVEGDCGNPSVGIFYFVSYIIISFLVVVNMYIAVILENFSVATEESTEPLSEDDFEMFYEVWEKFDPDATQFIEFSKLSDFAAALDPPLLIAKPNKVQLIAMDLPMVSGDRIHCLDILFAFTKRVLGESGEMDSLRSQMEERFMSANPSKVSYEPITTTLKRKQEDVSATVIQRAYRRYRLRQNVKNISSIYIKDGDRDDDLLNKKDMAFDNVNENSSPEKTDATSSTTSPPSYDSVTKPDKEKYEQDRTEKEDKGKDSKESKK

Turning to `COc1cc(C(F)(F)F)ccc1-c1ncc(C#N)c2cc(S(=O)(=O)Nc3ccncn3)ccc12` [Example 242, 4-CYANO-1-(2-METHOXY-4-(TRIFLUOROMETHYL)PHENYL)-N-(PYRIMIDIN-4-YL)ISOQUINOLINE-6-SULFONAMIDE], the IC50 in assay [1] was found to be 2500 nM; in assay [2], 3890 nM.

`Cn1ccnc1-c1cc(C(F)(F)F)ccc1-c1cccc2cc(S(=O)(=O)Nc3ncc(F)s3)ccc12` [Example 111]: the values for the 50% inhibitory concentration (IC50) in assay [1] and in assay [2] were 60 nM and 332 nM, respectively.

Take `COc1ccc(Cl)cc1-c1nccc2cc(S(=O)(=O)Nc3ccncn3)ccc12` [Example 146, 1-(5-CHLORO-2-METHOXYPHENYL)-N-(PYRIMIDIN-4-YL)ISOQUINOLINE-6-SULFONAMIDE]: the IC50 turned out to be 30 nM in assay [1] and 1370 nM in assay [2].

Turning to `COc1cc(Cl)ccc1-c1ncnc2cc(S(=O)(=O)Nc3nccs3)ccc12` [Example 267, 4-(4-CHLORO-2-METHOXYPHENYL)-N-(THIAZOL-2-YL)QUINAZOLINE-7-SULFONAMIDE], the figures for the 50% inhibitory concentration (IC50) in assay [1] and in assay [2] were 10 nM and 300 nM, respectively.

With `COc1cc(C(F)(F)F)ccc1-c1nccc2cc(S(=O)(=O)Nc3ncccn3)ccc12` [Example 188, 1-(2-METHOXY-4-(TRIFLUOROMETHYL)PHENYL)-N-(PYRIMIDIN-2-YL)ISOQUINOLINE-6-SULFONAMIDE], the IC50 in assay [1] is 200 nM; in assay [2], 3540 nM.

Regarding `Cn1cncc1-c1cc(C(F)(F)F)ccc1-c1cccc2cc(S(=O)(=O)Nc3ccncn3)ccc12` [Example 123], the IC50 in assay [1] is 50 nM; in assay [2], 516 nM.

Turning to `O=S(=O)(Nc1nccs1)c1ccc2c(N3CCC[C@H]3c3ccccc3)nccc2c1` [Example 239, (S)-1-(2-PHENYLPYRROLIDIN-1-YL)-N-(THIAZOL-2-YL)ISOQUINOLINE-6-SULFONAMIDE], the IC50 was determined as 1450 nM in assay [1] and 4590 nM in assay [2].

As for `COc1cc(C(F)F)ccc1-c1ncnc2cc(S(=O)(=O)Nc3nccs3)ccc12` [Example 266, 4-(4-(DIFLUOROMETHYL)-2-METHOXYPHENYL)-N-(THIAZOL-2-YL)QUINAZOLINE-7-SULFONAMIDE], the IC50 stood at 10 nM in assay [1] and 280 nM in assay [2].

As to `COc1cc(C(F)(F)F)ccc1-c1ncc(C#N)c2cc(S(=O)(=O)Nc3nccs3)ccc12` [Example 240, 4-CYANO-1-(2-METHOXY-4-(TRIFLUOROMETHYL)PHENYL)-N-(THIAZOL-2-YL)ISOQUINOLINE-6-SULFONAMIDE], the IC50 in assay [1] turned out to be 190 nM; in assay [2] it was 390 nM.

With `COc1cc(F)ccc1-c1nccc2cc(S(=O)(=O)Nc3ccncn3)ccc12` [Example 167, 1-(4-FLUORO-2-METHOXYPHENYL)-N-(PYRIMIDIN-4-YL)ISOQUINOLINE-6-SULFONAMIDE], the IC50 in assay [1] was 50 nM; in assay [2] it was 4260 nM.

In the case of `CN1CCN(c2cc(C(F)(F)F)ccc2-c2cccc3cc(S(=O)(=O)Nc4nccs4)ccc23)CC1` [Example 84, 5-(2-(4-METHYLPIPERAZIN-1-YL)-4-(TRIFLUOROMETHYL)PHENYL)-N-(THIAZOL-2-YL)NAPHTHALENE-2-SULFONAMIDE 2,2,2-TRIFLUOROACETATE], the IC50 in assay [1] stood at 110 nM; in assay [2], 588 nM.

With `COc1ccc(-c2nccc3cc(S(=O)(=O)Nc4ccncn4)ccc23)c(OC)n1` [Example 145, 1-(2,6-DIMETHOXYPYRIDIN-3-YL)-N-(PYRIMIDIN-4-YL)ISOQUINOLINE-6-SULFONAMIDE], the values for the IC50 in assay [1] and in assay [2] were 920 nM and 16400 nM, respectively.

For the molecule `N#CCn1c(-c2cccc3cc(S(=O)(=O)Nc4ccncn4)ccc23)cc2cc(F)ccc21` [Example 105], the IC50 in assay [1] worked out at 2480 nM; in assay [2], 7840 nM.

For the molecule `O=S(=O)(Nc1ncns1)c1ccc2c(N3CCC[C@@H]3c3cccnc3)cccc2c1` (single isomer, unassigned) [Example 87], the IC50 in assay [1] worked out at 460 nM; in assay [2] it was 1320 nM.

As to `COCCN1CCCC1c1nccc2cc(S(=O)(=O)Nc3nccs3)ccc12` (stereo not drawn) [Example 246, 1-(1-(2-METHOXYETHYL)PYRROLIDIN-2-YL)-N-(THIAZOL-2-YL)ISOQUINOLINE-6-SULFONAMIDE], the half-maximal inhibitory concentration (IC50) in assay [1] worked out at 2150 nM; in assay [2], 27400 nM.

Turning to `COc1ccc(-c2nccc3cc(S(=O)(=O)Nc4ccncn4)ccc23)c(OC)c1` [Example 172, 1-(2,4-DIMETHOXYPHENYL)-N-(PYRIMIDIN-4-YL)ISOQUINOLINE-6-SULFONAMIDE], the IC50 was 270 nM in assay [1] and 16600 nM in assay [2].

For the molecule `COc1cc(C(F)(F)F)ccc1-c1ncc(F)c2cc(S(=O)(=O)Nc3nccs3)ccc12` [Example 212, 4-FLUORO-1-(2-METHOXY-4-(TRIFLUOROMETHYL)PHENYL)-N-(THIAZOL-2-YL)ISOQUINOLINE-6-SULFONAMIDE], the figures for the IC50 in assay [1] and in assay [2] were 30 nM and 269 nM, respectively.

With `COc1cc(C(F)(F)F)ccc1-c1nc(Cl)cc2cc(S(=O)(=O)Nc3nccs3)ccc12` [Example 219, 3-CHLORO-1-(2-METHOXY-4-(TRIFLUOROMETHYL)PHENYL)-N-(THIAZOL-2-YL)ISOQUINOLINE-6-SULFONAMIDE], the figures for the IC50 in assay [1] and in assay [2] were 170 nM and 796 nM, respectively.

With `O=S(=O)(Nc1ccncn1)c1ccc2c(-c3ccc(C(F)(F)F)cc3C3=CCNC3)cccc2c1` [Example 119], the results for the IC50 in assay [1] and in assay [2] were 20 nM and 179 nM, respectively.

As for `COc1cc2ccccc2cc1-c1nccc2cc(S(=O)(=O)Nc3ccncn3)ccc12` [Example 155, 1-(3-METHOXYNAPHTHALEN-2-YL)-N-(PYRIMIDIN-4-YL)ISOQUINOLINE-6-SULFONAMIDE], the IC50 in assay [1] was 30 nM; in assay [2], 1130 nM.

As to `COc1ccccc1-c1nncc2cc(S(=O)(=O)Nc3nccs3)ccc12` [Example 252, 1-(2-METHOXYPHENYL)-N-(THIAZOL-2-YL)PHTHALAZINE-6-SULFONAMIDE], the results for the IC50 in assay [1] and in assay [2] were 120 nM and 1920 nM, respectively.

`COc1cc(Cl)ccc1-c1nncc2cc(S(=O)(=O)Nc3nccs3)ccc12` [Example 249, 1-(4-CHLORO-2-METHOXYPHENYL)-N-(THIAZOL-2-YL)PHTHALAZINE-6-SULFONAMIDE]: the IC50 in assay [1] came out at 30 nM; in assay [2], 290 nM.

Take `Cn1c(-c2cccc3cc(S(=O)(=O)Nc4ccncn4)ccc23)cc2cc(F)ccc21` [Example 106]: the IC50 is 1600 nM in assay [1] and 3840 nM in assay [2].

`COc1ccc(C)cc1-c1nccc2cc(S(=O)(=O)Nc3ccncn3)ccc12` [Example 149]: the IC50 in assay [1] stood at 60 nM; in assay [2], 2400 nM.

`COc1cc(F)ccc1-c1ncc(F)c2cc(S(=O)(=O)Nc3nccs3)ccc12` [Example 213, 4-FLUORO-1-(4-FLUORO-2-METHOXYPHENYL)-N-(THIAZOL-2-YL)ISOQUINOLINE-6-SULFONAMIDE]: the figures for the IC50 in assay [1] and in assay [2] were 10 nM and 360 nM, respectively.

Turning to `COc1ccc(C(F)(F)F)cc1-c1nccc2cc(S(=O)(=O)Nc3ccncn3)ccc12` [Example 139, 1-(2-METHOXY-5-(TRIFLUOROMETHYL)PHENYL)-N-(PYRIMIDIN-4-YL)ISOQUINOLINE-6-SULFONAMIDE], the IC50 in assay [1] came to 10 nM; in assay [2], 415 nM.

In the case of `COc1cc(Cl)c(Cl)cc1-c1nccc2cc(S(=O)(=O)Nc3ccncn3)ccc12` [Example 161, 1-(4,5-DICHLORO-2-METHOXYPHENYL)-N-(PYRIMIDIN-4-YL)ISOQUINOLINE-6-SULFONAMIDE], the IC50 worked out at 20 nM in assay [1] and 393 nM in assay [2].

As for `COc1cc(C(F)(F)F)ccc1-c1ncnc2cc(S(=O)(=O)Nc3ccncn3)ccc12` [Example 262, 4-(2-METHOXY-4-(TRIFLUOROMETHYL)PHENYL)-N-(PYRIMIDIN-4-YL)QUINAZOLINE-7-SULFONAMIDE], the IC50 in assay [1] was determined as 40 nM; in assay [2] it was 960 nM.

Turning to `O=S(=O)(Nc1nccs1)c1ccc2c(N3CCC(c4ccccc4)C3)nccc2c1` (stereo not drawn) [Example 243, 1-(3-PHENYLPYRROLIDIN-1-YL)-N-(THIAZOL-2-YL)ISOQUINOLINE-6-SULFONAMIDE], the IC50 in assay [1] came to 780 nM; in assay [2] it was 10700 nM.

With `COc1cc(F)c(F)cc1-c1nccc2cc(S(=O)(=O)Nc3ccncn3)ccc12` [Example 142, 1-(4,5-DIFLUORO-2-METHOXYPHENYL)-N-(PYRIMIDIN-4-YL)ISOQUINOLINE-6-SULFONAMIDE], the IC50 came out at 60 nM in assay [1] and 1790 nM in assay [2].

`O=S(=O)(Nc1ncns1)c1ccc2c(N3CCCC3c3ccccc3)nccc2c1` (stereo not drawn) [Example 236, 1-(2-PHENYLPYRROLIDIN-1-YL)-N-(1,2,4-THIADIAZOL-5-YL)ISOQUINOLINE-6-SULFONAMIDE]: the figures for the 50% inhibitory concentration (IC50) in assay [1] and in assay [2] were 130 nM and 430 nM, respectively.

For `Cc1cc(Cl)ccc1-c1nccc2cc(S(=O)(=O)Nc3nccs3)ccc12` [Example 209, 1-(4-CHLORO-2-METHYLPHENYL)-N-(THIAZOL-2-YL)ISOQUINOLINE-6-SULFONAMIDE 2,2,2-TRIFLUOROACETATE], the IC50 was found to be 60 nM in assay [1] and 385 nM in assay [2].

For `O=S(=O)(Nc1ccncn1)c1ccc2c(-c3ccc(C(F)(F)F)cc3-n3ccnc3)cccc2c1` [Example 121], the 50% inhibitory concentration (IC50) in assay [1] stood at 30 nM; in assay [2] it was 864 nM.

For the molecule `COc1cc(C#N)ccc1-c1nccc2cc(S(=O)(=O)Nc3nccs3)ccc12` [Example 205, 1-(4-CYANO-2-METHOXYPHENYL)-N-(THIAZOL-2-YL)ISOQUINOLINE-6-SULFONAMIDE], the figures for the IC50 in assay [1] and in assay [2] were 20 nM and 470 nM, respectively.

Turning to `O=S(=O)(Nc1ncns1)c1ccc2c(C3CCCN3Cc3ccccc3)cccc2c1` (stereo not drawn) [Example 97], the results for the IC50 in assay [1] and in assay [2] were 460 nM and 2220 nM, respectively.

For the molecule `O=C(c1ccccc1)N1CCCC1c1cccc2cc(S(=O)(=O)Nc3nccs3)ccc12` (stereo not drawn) [Example 101], the results for the IC50 in assay [1] and in assay [2] were 1160 nM and 11800 nM, respectively.

As a reminder, the IC50 is the point on the concentration scale where inhibition reaches its midpoint.
